87 compounds from PubChem BioAssay AID1117347 (Cheminformatics & Chemogenomics Research Group (CCRG), …, 2015) can be followed below.

For the assay, the system named is HeLa cell count decrease. In words: decrease in HeLa cell numbers, dose-response curve, cell enumeration, 50% inhibitory concentration (AID 1117347).

As usually defined, the IC50 is the concentration that gives 50% inhibition.

SMILES strings stand for the structures. The source made the active and inactive calls. The rule behind the calls is not given here.

For the compound `Nc1nc(Cl)nc2c1ncn2[C@@H]1O[C@H](CO)[C@@H](O)[C@@H]1F`, the IC50 was 5.16 nM. For `CCN(CC)CCOc1ccc(/C(=C(\Cl)c2ccccc2)c2ccccc2)cc1`, the IC50 is > 10000 nM (inactive).

Consider `O=C(Nc1ccc(Br)cc1)c1cc(Br)cc(Br)c1O`, for which the IC50 is > 10000 nM (inactive). As to `COC(=O)Nc1nc2ccc(S(=O)c3ccccc3)cc2[nH]1` (configuration not stated), the half-maximal inhibitory concentration (IC50) is 258 nM. For `O=C(O)CCc1nc2ccccc2[nH]1`, the IC50 was > 10000 nM (inactive). Consider `CN1CC[C@H](c2c(O)cc(O)c3c(=O)cc(-c4ccccc4Cl)oc23)[C@H](O)C1`, for which the IC50 was 21.2 nM. As for `CCCCCCCCCCCCNCCNCCNCC(=O)O`, the IC50 is > 10000 nM (inactive). Consider `O=C(c1cc(O)c(O)c(O)c1)c1ccc(O)c(O)c1O`, for which the IC50 was > 10000 nM (inactive). With `CC(C)OC(=O)OCOP(=O)(CO[C@H](C)Cn1cnc2c(N)ncnc21)OCOC(=O)OC(C)C` the figure was 289 nM. Regarding `CCN(CCCCOC(=O)c1ccc(OC)c(OC)c1)C(C)Cc1ccc(OC)cc1` (configuration not stated), the IC50 was > 10000 nM (inactive). As for `COc1cc2c(c(OC)c1OC)-c1ccc(OC)c(=O)cc1[C@@H](NC(C)=O)CC2`, the 50% inhibitory concentration (IC50) is 1.88 nM. As to `CC[C@@]1(O)C(=O)OCc2c1cc1n(c2=O)Cc2c-1nc1ccccc1c2/C=N/OC(C)(C)C`, the IC50 is 2.2 nM. In the case of `CC(=O)N(O)CCCCCNC(=O)CCC(=O)N(O)CCCCCNC(=O)CCC(=O)N(O)CCCCCN`, the IC50 is > 10000 nM (inactive).

On to `CN1CCCC(CC2c3ccccc3Sc3ccccc32)C1` (configuration not stated), for which the IC50 was > 10000 nM (inactive). In the case of `O[C@@H](CNC[C@H](O)[C@H]1CCc2cc(F)ccc2O1)[C@@H]1CCc2cc(F)ccc2O1`, the IC50 was 5560 nM (inactive). `O=c1[nH]c(=O)n([C@H]2C[C@H](O)[C@@H](CO)O2)cc1F`: the IC50 was > 10000 nM (inactive). With `CC(C)(C)C1CCC(CC2=C(O)c3ccccc3C(=O)C2=O)CC1` (configuration not stated) the figure was > 10000 nM (inactive); with `COc1cccc2c1C(=O)c1c(O)c3c(c(O)c1C2=O)C[C@@](O)(C(=O)CO)CC3OC1CC(N2CCOC(OC)C2)C(O)C(C)O1` (some centres not stated), 4.68 nM; with `Cc1ccc(S(=O)(=O)NC(=O)NN2CC3CCCC3C2)cc1` (configuration not stated), > 10000 nM (inactive). `CCC(=O)c1ccc(O)cc1`: the IC50 was > 10000 nM (inactive). The value for `O=[N+]([O-])c1ccc(O)c2ncccc12` was 295 nM.

In the case of `COc1cccc2c1C(=O)c1c(O)c3c(c(O)c1C2=O)C[C@@](O)(C(C)=O)C[C@@H]3O[C@H]1C[C@H](N)[C@H](O)[C@H](C)O1`, the IC50 is 8.05 nM. For the compound `COc1ccc(Cc2nccc3cc(OC)c(OC)cc23)cc1OC`, the IC50 was > 10000 nM (inactive). The value for `CN(C)CCC=C1c2ccccc2CCc2ccccc21` was > 10000 nM (inactive).

Regarding `CCN1/C(=C/C=C/c2sc3ccccc3[n+]2CC)Sc2ccccc21`, the IC50 is 36 nM.

As to `CCc1oc2ccccc2c1C(=O)c1cc(Br)c(O)c(Br)c1`, the IC50 is > 10000 nM (inactive). `Cc1ccc2nc(N)[nH]c(=O)c2c1Sc1ccncc1`: the IC50 was > 10000 nM (inactive). For `O=c1c(-c2ccccc2)c1-c1ccccc1`, the half-maximal inhibitory concentration (IC50) is 1690 nM.

With `Oc1c(I)cc(Cl)c2cccnc12`, the IC50 was > 10000 nM (inactive). As to `Cc1cc(=O)c2c(O)c3c(O)cc(=O)c4c3c3c(cc(O)c1c23)C(C)(C)C=4O`, the IC50 is 1000 nM. The value for `O=C1[C@H]2CCCC[C@H]2C(=O)N1CCCCN1CCN(c2nsc3ccccc23)CC1` was > 10000 nM (inactive); that for `C[n+]1c2cc(N)ccc2cc2ccc(N)cc21` (tested in a mixture with another compound) was 472 nM. In the case of `Cc1cc(C2CCCCC2)n(O)c(=O)c1`, the IC50 was 569 nM. `CN(C)CCOC(c1ccccc1)c1ccc(Br)cc1` (configuration not stated): the IC50 was > 10000 nM (inactive).

As to `CCN(CC)CCNc1ccc(CO)c2sc3ccccc3c(=O)c12`, the IC50 was 5920 nM (inactive). In the case of `O=C1C2CC=CCC2C(=O)N1SC(Cl)(Cl)Cl` (configuration not stated), the half-inhibitory concentration (IC50) was 1780 nM. The value for `O=c1[nH]cc(F)c(=O)[nH]1` was > 10000 nM (inactive); that for `O=C(O)c1ccc(-n2nc(-c3ccccc3O)nc2-c2ccccc2O)cc1` was 5680 nM (inactive); that for `COc1ccc2cc1Oc1ccc(cc1)C[C@H]1c3c(cc4c(c3Oc3cc5c(cc3OC)CCN(C)[C@@H]5C2)OCO4)CCN1C` was 5540 nM (inactive). Regarding `Clc1ccc(Nc2nnc(Cc3ccncc3)c3ccccc23)cc1`, the IC50 was > 10000 nM (inactive). The value for `CN(C)/N=N/c1nc[nH]c1C(N)=O` was > 10000 nM (inactive); that for `COC(=O)Nc1nc2ccc(C(=O)C3CC3)cc2[nH]1` was 297 nM; that for `O=C(CCBr)N1CCN(C(=O)CCBr)CC1` was > 10000 nM (inactive). With `CC(=O)Nc1ccn(C2COC(COC(=O)c3ccccc3)O2)c(=O)n1` (configuration not stated) the figure was 281 nM. The value for `CC(=O)[C@]1(O)Cc2c(O)c3c(c(O)c2[C@@H](O[C@H]2C[C@H](N)[C@H](O)[C@H](C)O2)C1)C(=O)c1ccccc1C3=O` was 14.2 nM. In the case of `Oc1ccc([C@H]2CNCc3c2ccc(O)c3O)cc1O`, the IC50 is > 10000 nM (inactive). With `CCC(COC(=O)c1cc(OC)c(OC)c(OC)c1)(c1ccccc1)N(C)C` (configuration not stated) the figure was > 10000 nM (inactive). Turning to `CC(C)c1c(C(=O)Nc2ccccc2)c(-c2ccccc2)c(-c2ccc(F)cc2)n1CC[C@@H](O)C[C@@H](O)CC(=O)O`, the IC50 is > 10000 nM (inactive). The value for `N[C@@H](Cc1ccc(N(CCCl)CCCl)cc1)C(=O)O` was 390 nM; that for `O=C(CCl)c1ccc(Cl)cc1Cl` was 350 nM.

In the case of `CCN(CC)CCOc1ccccc1C(=O)CCc1ccccc1`, the IC50 was > 10000 nM (inactive). With `Clc1ccccc1C(c1ccccc1)(c1ccccc1)n1ccnc1` the figure was > 10000 nM (inactive); with `CN(C)c1ccc2nc3ccc(=[N+](C)C)cc-3sc2c1`, > 10000 nM (inactive); with `NCCNc1ccc(NCCN)c2c1C(=O)c1ccncc1C2=O`, 42.1 nM. With `CCCCCCCCCCOCC(O)CN` (configuration not stated), the IC50 is > 10000 nM (inactive). In the case of `CCCCC1C(=O)N(c2ccccc2)N(c2ccc(O)cc2)C1=O` (configuration not stated), the IC50 is 1660 nM. Take `O=c1[nH]c(=O)n([C@H]2C[C@H](O)[C@@H](CO)O2)cc1I`: the IC50 is > 10000 nM (inactive). In the case of `Nc1ccc2cc3ccc(N)cc3nc2c1`, the IC50 is 1340 nM.

On to `CCCCCCC[N+](CC)(CC)CCCCc1ccc(Cl)cc1`, for which the IC50 is > 10000 nM (inactive). Regarding `CSc1ccc2c(c1)C(N1CCN(C)CC1)Cc1ccccc1S2` (configuration not stated), the IC50 is > 10000 nM (inactive).

On to `O=c1[nH]c(=O)n([C@H]2C[C@H](O)[C@@H](CO)O2)cc1Br`, for which the IC50 is > 10000 nM (inactive). In the case of `COc1cc([C@@H]2c3cc4c(cc3[C@H](O)[C@H]3COC(=O)[C@H]23)OCO4)cc(OC)c1OC`, the half-maximal inhibitory concentration (IC50) is 4.8 nM. With `O=Cc1ccc(O)c(O)c1O` the figure was > 10000 nM (inactive); with `CCCCCCCCCCCCCCCC[N+](C)(C)CCN(Cc1ccc(OC)cc1)c1ncccn1`, 349 nM. In the case of `Cc1ccc2c(c1)c1c3n2CCNC3CCC1` (configuration not stated), the IC50 was > 10000 nM (inactive). Turning to `CCCCCCCCCCCCCCCC[N+](C)(C)Cc1ccccc1`, the IC50 is > 10000 nM (inactive). As for `CCCCc1ccc2nc(NC(=O)OC)[nH]c2c1`, the half-inhibitory concentration (IC50) is 5.66 nM.

Take `CC(=O)O[C@@]12CO[C@@H]1C[C@H](O)[C@@]1(C)C(=O)[C@H](O)C3=C(C)[C@@H](OC(=O)[C@H](O)[C@@H](NC(=O)OC(C)(C)C)c4ccccc4)C[C@@](O)([C@@H](OC(=O)c4ccccc4)[C@H]21)C3(C)C`: the IC50 was 1 nM. With `COCCOC(=O)C1=C(C)NC(C)=C(C(=O)OC/C=C/c2ccccc2)C1c1cccc([N+](=O)[O-])c1` (configuration not stated) the figure was > 10000 nM (inactive); with `CCN(CC)CCCC(C)Nc1c2ccc(Cl)cc2nc2ccc(OC)cc12` (configuration not stated), 1330 nM. Consider `CO[C@@]12[C@H](COC(N)=O)C3=C(C(=O)C(C)=C(N)C3=O)N1C[C@@H]1N[C@@H]12`, for which the 50% inhibitory concentration (IC50) is 77.3 nM. Turning to `CCCOc1ccc2nc(NC(=O)OC)[nH]c2c1`, the IC50 was 46.7 nM. For the compound `C[C@@H](O[C@H]1OCCN(Cc2n[nH]c(=O)[nH]2)[C@H]1c1ccc(F)cc1)c1cc(C(F)(F)F)cc(C(F)(F)F)c1`, the IC50 was > 10000 nM (inactive). For the compound `CC(C)=CCC/C(C)=C/CC/C(C)=C/C(=O)OCC(=O)[C@@]1(O)CC[C@H]2[C@@H]3CCC4=CC(=O)C=C[C@]4(C)[C@H]3[C@@H](O)C[C@@]21C`, the IC50 was 59.5 nM. With `CCCN(CCC)C(=O)C(CCC(=O)OCCCN1CCN(CCOC(=O)Cc2c(C)n(C(=O)c3ccc(Cl)cc3)c3ccc(OC)cc23)CC1)NC(=O)c1ccccc1` (configuration not stated) the figure was 5480 nM (inactive).

On to `CC[C@H](C)C(=O)O[C@H]1C[C@@H](C)C=C2C=C[C@H](C)[C@H](CC[C@@H]3C[C@@H](O)CC(=O)O3)[C@H]21`, for which the IC50 was > 10000 nM (inactive). `CCCCC(CC)CN=C(N)NC(N)=NCCCCCCN=C(N)NC(N)=NCC(CC)CCCC` (configuration not stated): the half-maximal inhibitory concentration (IC50) is 18.6 nM. On to `COC(=O)[C@H]1[C@H]2C[C@@H]3c4[nH]c5cc(OC)ccc5c4CCN3C[C@H]2C[C@@H](OC(=O)/C=C/c2ccc(O)c(OC)c2)[C@@H]1OC`, for which the IC50 is > 10000 nM (inactive).

As to `O=C1c2c(O)cccc2Cc2cccc(O)c21`, the IC50 was > 10000 nM (inactive).

In the case of `CCc1nc(N)nc(N)c1-c1ccc(Cl)cc1`, the IC50 is > 10000 nM (inactive).

Consider `NC(N)=NN=C(/C=C/c1ccc([N+](=O)[O-])o1)/C=C/c1ccc([N+](=O)[O-])o1`, for which the IC50 is > 10000 nM (inactive).

`CC(=O)Oc1ccccc1C(=O)Nc1ncc([N+](=O)[O-])s1`: the IC50 was > 10000 nM (inactive). As for `Cc1cc2c(C(C)C)c(O)c(O)c(C=O)c2c(O)c1-c1c(C)cc2c(C(C)C)c(O)c(O)c(C=O)c2c1O`, the IC50 is 3710 nM.

For `Fc1ccc(C(OCCN2CCN(CCCc3ccccc3)CC2)c2ccc(F)cc2)cc1`, the IC50 is 3200 nM. For the compound `CCN(CC)CCOc1ccc(C(O)(Cc2ccc(Cl)cc2)c2ccc(C)cc2)cc1` (configuration not stated), the IC50 is > 10000 nM (inactive). For `CCCCOC(=O)c1ccc(N)cc1`, the IC50 is > 10000 nM (inactive). Turning to `CC[n+]1c(-c2ccccc2)c2cc(N)ccc2c2ccc(N)cc21`, the IC50 is > 10000 nM (inactive).
